The target in one assay is T1, human PRS protein (Homo sapiens, UniProt P07814).
T1 construct: to construct His-Avi-hEPRS (998-1512) expression plasmid; His tag (N); Avi tag (N); TEV cleavage site (ENLYFQ/GS, encoded by forward primer hEPRS-TEV-NheF) (N); made in house; host or cells: E. coli BL21(DE3)
T1 sequence (P07814 998-1512): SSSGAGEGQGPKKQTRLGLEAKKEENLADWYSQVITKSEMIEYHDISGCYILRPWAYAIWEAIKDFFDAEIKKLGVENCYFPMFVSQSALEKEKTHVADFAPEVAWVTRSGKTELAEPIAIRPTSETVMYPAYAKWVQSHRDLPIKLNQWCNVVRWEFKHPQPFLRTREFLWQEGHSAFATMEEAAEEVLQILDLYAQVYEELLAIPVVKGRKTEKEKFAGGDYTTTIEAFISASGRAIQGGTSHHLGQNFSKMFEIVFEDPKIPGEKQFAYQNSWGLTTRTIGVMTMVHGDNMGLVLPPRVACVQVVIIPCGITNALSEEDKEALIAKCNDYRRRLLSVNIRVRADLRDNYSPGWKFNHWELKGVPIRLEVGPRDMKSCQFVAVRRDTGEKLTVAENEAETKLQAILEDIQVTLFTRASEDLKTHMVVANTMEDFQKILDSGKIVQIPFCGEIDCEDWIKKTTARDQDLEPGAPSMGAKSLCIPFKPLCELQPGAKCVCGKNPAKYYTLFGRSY
Description: PRS inhibitory activity (ATP/[32P]pyrophosphate exchange enzyme reaction). The assay is classed as biochemical. The settings on record: 300 nM test compound; recombinant human PRS (EPRS 998-1512); read-out: inhibitory rate (%) of PRS. The method in brief: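 His-Avi-tagged human EPRS catalytic domain (998-1512), E. coli-expressed, was preincubated 60 min with compound (enzyme added as 40 nM solution) in Tris pH 7.5, KCl, DTT, Tween 20 and MgCl2. The substrate solution contained 300 μM ATP, 160 μM L-proline, and 400 μM pyrophosphate with [32P]pyrophosphate; reaction ran 30 min at room temperature. Charcoal-captured label was counted, with enzyme-free wells taken as 100% inhibition.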

Assay [1] deals with human ovarian cancer cell A2780. Briefly: proliferation inhibitory activity against A2780 cells (CellTiter-Glo). The settings on record: A2780, 72 h, 1 μM test compound, 3 days of culture, read-out: proliferation inhibitory rate (%) of A2780 cells. The format is cell-based. How it is done:
The proliferation inhibitory activity of the compound of the present invention against human ovarian cancer cell A2780 was evaluated by the following method.
Human ovarian cancer cells A2780 were seeded in a 384 well culture plate at 1000 cells in 30 μL of medium per well by using RPMI-1640 medium (Wako Pure Chemical Industries, Ltd.) containing 10% fetal bovine serum and penicillin/streptomycin. The next day, 10 μL of RPMI-1640 medium containing the test compound was added to the cells. After 3 days of culture, 20 μL of CellTiter-Glo Luminescent Cell Viability Assay solution (Promega, Fitchburg, Wis., US) was added. The luminescence signal was measured using EnVision (PerkinElmer, Waltham, Mass., US) and the inhibitory rate (%) of the test compound was calculated with a well free of seeding of cell as 100% inhibition.

`N#C[C@@]1(C2CC2)CCN(c2ccnc(NC(=O)Cc3cccc(-c4cnn(C(F)F)c4)c3)c2)C1=O` [Example 44, N-(4-((3S)-3-cyano-3-cyclopropyl-2-oxopyrrolidin-1-yl)pyridin-2-yl)-2-(3-(1-(difluoromethyl)-1H-pyrazol-4-yl)phenyl)acetamide]: the inhibition at 0.3 µM at human PRS protein is 100%. In addition, the inhibition at 1 µM in assay [1] was determined as 86%.

Take `Cc1ncc(-c2cccc(CC(=O)Nc3cc(N4CC[C@@](C#N)(C5CC5)C4=O)ccn3)c2)s1` [Example 45, N-(4-((3S)-3-cyano-3-cyclopropyl-2-oxopyrrolidin-1-yl)pyridin-2-yl)-2-(3-(2-methyl-1,3-thiazol-5-yl)phenyl)acetamide]: at human PRS protein, the inhibition at 0.3 µM was determined as 97%. Besides, the inhibition at 1 µM in assay [1] stood at 76%.

Consider `Cn1cc(-c2cccc(CC(=O)Nc3cc(N4CC[C@@](C#N)(C5CC5)C4=O)ccn3)c2)nn1` [Example 47, N-(4-((3S)-3-cyano-3-cyclopropyl-2-oxopyrrolidin-1-yl)pyridin-2-yl)-2-(3-(1-methyl-1H-1,2,3-triazol-4-yl)phenyl)acetamide], for which, on human PRS protein, the inhibition at 0.3 µM is 99%. In addition, the inhibition at 1 µM in assay [1] came out at 66%.

Consider `Cc1cc(-c2cccc(CC(=O)Nc3cc(N4CC[C@@](C#N)(C5CC5)C4=O)ccn3)c2)sn1` [Example 48, N-(4-((3S)-3-cyano-3-cyclopropyl-2-oxopyrrolidin-1-yl)pyridin-2-yl)-2-(3-(3-methyl-1,2-thiazol-5-yl)phenyl)acetamide], for which the inhibition at 0.3 µM at human PRS protein was found to be 100%. In addition, in assay [1], the inhibition at 1 µM came to 61%.

In the case of `N#C[C@@]1(C2CC2)CCN(c2ccnc(NC(=O)Cc3cccc(-c4cnsc4)c3)c2)C1=O` [Example 50, N-(4-((3S)-3-cyano-3-cyclopropyl-2-oxopyrrolidin-1-yl)pyridin-2-yl)-2-(3-(1,2-thiazol-4-yl)phenyl)acetamide], at human PRS protein, the inhibition at 0.3 µM stood at 99%. In assay [1], the inhibition at 1 µM is 78%.

Regarding `Cn1ccc(-c2cccc(CC(=O)Nc3cc(N4CC[C@@](C#N)(C5CC5)C4=O)ccn3)c2)cc1=O` [Example 51, N-(4-((3S)-3-cyano-3-cyclopropyl-2-oxopyrrolidin-1-yl)pyridin-2-yl)-2-(3-(1-methyl-2-oxo-1,2-dihydropyridin-4-yl)phenyl)acetamide], the inhibition at 0.3 µM on human PRS protein was found to be 99%. Further, the inhibition at 1 µM in assay [1] was determined as 52%.

Turning to `Cc1cc(N2CC[C@@](C#N)(C3CC3)C2=O)cc(NC(=O)Cc2cc(F)cc(-c3cnn(C)c3)c2)n1` [Example 52, N-(4-((3S)-3-cyano-3-cyclopropyl-2-oxopyrrolidin-1-yl)-6-methylpyridin-2-yl)-2-(3-fluoro-5-(1-methyl-1H-pyrazol-4-yl)phenyl)acetamide], on human PRS protein, the inhibition at 0.3 µM amounted to 99%. In addition, the inhibition at 1 µM in assay [1] was determined as 97%.

For `Cn1cc(-c2ccc(F)c(CC(=O)Nc3cc(N4CC[C@@](C#N)(C5CC5)C4=O)ccn3)c2)cn1` [Example 53, N-(4-((3S)-3-cyano-3-cyclopropyl-2-oxopyrrolidin-1-yl)pyridin-2-yl)-2-(2-fluoro-5-(1-methyl-1H-pyrazol-4-yl)phenyl)acetamide], the inhibition at 0.3 µM on human PRS protein stood at 100%. Also, the inhibition at 1 µM in assay [1] is 82%.

Turning to `CC(C)(C)OC(=O)n1cc(-c2cccc(CC(=O)Nc3cc(N4CC[C@@](C#N)(C5CC5)C4=O)ccn3)c2)cn1` [Example 55, tert-butyl 4-(3-(2-((4-((3S)-3-cyano-3-cyclopropyl-2-oxopyrrolidin-1-yl)pyridin-2-yl)amino)-2-oxoethyl)phenyl)-1H-pyrazole-1-carboxylate], the inhibition at 0.3 µM on human PRS protein turned out to be 99%. In addition, the inhibition at 1 µM in assay [1] is 67%.

In the case of `N#C[C@@]1(C2CC2)CCN(c2ccnc(NC(=O)Cc3cccc(-c4cn[nH]c4)c3)c2)C1=O` [Example 56, N-(4-((3S)-3-cyano-3-cyclopropyl-2-oxopyrrolidin-1-yl)pyridin-2-yl)-2-(3-(1H-pyrazol-4-yl)phenyl)acetamide], the inhibition at 0.3 µM at human PRS protein was 98%. Also, the inhibition at 1 µM in assay [1] was found to be 64%.

Consider `Cc1cc(N2CC[C@@](C#N)(C3CC3)C2=O)cc(NC(=O)Cc2cc(F)cc(-c3cn(C)nn3)c2)n1` [Example 57, N-(4-((3S)-3-cyano-3-cyclopropyl-2-oxopyrrolidin-1-yl)-6-methylpyridin-2-yl)-2-(3-fluoro-5-(1-methyl-1H-1,2,3-triazol-4-yl)phenyl)acetamide], for which the inhibition at 0.3 µM at human PRS protein was found to be 99%. Besides, the inhibition at 1 µM in assay [1] is 94%.

For `N#C[C@@]1(C2CC2)CCN(c2ccnc(NC(=O)Cc3cccc(-c4cnn(CC(F)(F)F)c4)c3)c2)C1=O` [Example 58, N-(4-((3S)-3-cyano-3-cyclopropyl-2-oxopyrrolidin-1-yl)pyridin-2-yl)-2-(3-(1-(2,2,2-trifluoroethyl)-1H-pyrazol-4-yl)phenyl)acetamide], the inhibition at 0.3 µM at human PRS protein is 99%. The inhibition at 1 µM in assay [1] worked out at 75%.

As for `Cc1cc(N2CC[C@@](C#N)(C3CC3)C2=O)cc(NC(=O)Cc2cc(-c3cnn(C)c3)cc(C(F)(F)F)c2)n1` [Example 59, N-(4-((3S)-3-cyano-3-cyclopropyl-2-oxopyrrolidin-1-yl)-6-methylpyridin-2-yl)-2-(3-(1-methyl-1H-pyrazol-4-yl)-5-(trifluoromethyl)-phenyl)acetamide], on human PRS protein, the inhibition at 0.3 µM stood at 93%. Moreover, in assay [1], the inhibition at 1 µM turned out to be 51%.

For the compound `Cc1cc(N2CC[C@@](C#N)(C3CC3)C2=O)cc(NC(=O)Cc2cc(F)cc(-c3ccc(=O)n(C)c3)c2)n1` [Example 60, N-(4-((3S)-3-cyano-3-cyclopropyl-2-oxopyrrolidin-1-yl)-6-methylpyridin-2-yl)-2-(3-fluoro-5-(1-methyl-6-oxo-1,6-dihydropyridin-3-yl)phenyl)acetamide], the inhibition at 0.3 µM on human PRS protein amounted to 99%. Besides, in assay [1], the inhibition at 1 µM turned out to be 97%.

As to `Cn1cc(-c2cccc(CC(=O)Nc3cc(N4CC[C@@](C#N)(C5CC5)C4=O)cc(F)n3)c2)cn1` [Example 63, N-(4-((3S)-3-cyano-3-cyclopropyl-2-oxopyrrolidin-1-yl)-6-fluoropyridin-2-yl)-2-(3-(1-methyl-1H-pyrazol-4-yl)phenyl)acetamide], the inhibition at 0.3 µM on human PRS protein was 99%. In addition, the inhibition at 1 µM in assay [1] turned out to be 88%.

As to `N#C[C@@]1(C2CC2)CCN(c2ccnc(NC(=O)Cc3cccc(-c4cnn(CC5CC5)c4)c3)c2)C1=O` [Example 64, N-(4-((3S)-3-cyano-3-cyclopropyl-2-oxopyrrolidin-1-yl)pyridin-2-yl)-2-(3-(1-(cyclopropylmethyl)-1H-pyrazol-4-yl)phenyl)acetamide], at human PRS protein, the inhibition at 0.3 µM was 99%. Besides, the inhibition at 1 µM in assay [1] is 79%.

In the case of `Cn1cc(-c2cccc(CC(=O)Nc3cc(N4CC[C@@](C#N)(C5CC5)C4=O)cc(C(F)F)n3)c2)cn1` [Example 65, N-(4-((3S)-3-cyano-3-cyclopropyl-2-oxopyrrolidin-1-yl)-6-(difluoromethyl)pyridin-2-yl)-2-(3-(1-methyl-1H-pyrazol-4-yl)phenyl)acetamide], the inhibition at 0.3 µM at human PRS protein amounted to 95%. The inhibition at 1 µM in assay [1] amounted to 75%.

On to `N#C[C@@]1(C2CC2)CCN(c2ccnc(NC(=O)Cc3cccc(-c4cnn(C5CCCC5)c4)c3)c2)C1=O` [Example 66, N-(4-((3S)-3-cyano-3-cyclopropyl-2-oxopyrrolidin-1-yl)pyridin-2-yl)-2-(3-(1-cyclopentyl-1H-pyrazol-4-yl)phenyl)acetamide], for which the inhibition at 0.3 µM at human PRS protein was 99%. Moreover, the inhibition at 1 µM in assay [1] stood at 80%.

Regarding `N#C[C@@]1(C2CC2)CCN(c2ccnc(NC(=O)Cc3cccc(-c4cnn(CCO)c4)c3)c2)C1=O` [Example 67, N-(4-((3S)-3-cyano-3-cyclopropyl-2-oxopyrrolidin-1-yl)pyridin-2-yl)-2-(3-(1-(2-hydroxyethyl)-1H-pyrazol-4-yl)phenyl)acetamide], the inhibition at 0.3 µM on human PRS protein came out at 100%. For the same compound, in assay [1], the inhibition at 1 µM is 77%.

Take `CC(C)Cn1cc(-c2cccc(CC(=O)Nc3cc(N4CC[C@@](C#N)(C5CC5)C4=O)ccn3)c2)cn1` [Example 68, N-(4-((3S)-3-cyano-3-cyclopropyl-2-oxopyrrolidin-1-yl)pyridin-2-yl)-2-(3-(1-isobutyl-1H-pyrazol-4-yl)phenyl)acetamide]: the inhibition at 0.3 µM on human PRS protein amounted to 98%. In addition, in assay [1], the inhibition at 1 µM came to 51%.
